Measured values from patent US11655477B2, “Methods for thaxtomin production and engineered non-native Streptomyces with increased thaxtomin production” (priority 2017, dated 2023).
“Also recorded” adds a separate entry of the source. Where two headings read alike, the source gives them in different places.

Tests used:
PC-3 cells = experiment: MTT assay to characterize cytotoxicity, PC-3 cells; assay type: cell-based, human; details: for cytotoxicity toward PC-3 cell line (in words): PC-3, PBS as negative control; for IC30 (30% inhibitory concentration) toward PC-3 cells: prostate cancer PC-3, MTT, 48 to 72 h
Procedure: (§1) PC-3 and Jurkat cells were cultured in DMEM or RPM11640 medium containing 10% fetal bovine serum and 100 U/mL penicillin and streptomycin, and maintained at 37° C. in a humidified incubator under 5% CO2. The cells (1×10^4 for Jurkat, and 5,000 for PC-3 in 100 μL) were seeded into 96-well plates and incubated overnight. Varying concentrations of purified compounds (0 μM, 12.5 μM, 25 μM, 50 μM and 100 μM) were added to the wells. After incubation at 37° C. for 48 to 72 h, 10 μL of MTT (5 mg/mL) in PBS was added and incubated for 4 h, followed by aspiration of the medium. DMSO (100 μL) was added to each well to dissolve the MTT in the wells, and the plates were agitated for 1 h for recording the absorbance at 570 nm using UV/vis microplate spectrophotometer (BioTek). Three to six replications were performed per treatment of each sample.

radish seedling = experiment: Herbicidal activity assay, radish seedling growth inhibition on agar plates; assay type: in vivo; details: for herbicidal activity / growth inhibition toward radish seedling (in words): DMSO as negative control; for IC50: total seedling length after 6 days, percent inhibition relative to DMSO control, four-parameter logistic fit, read-out: I50 (herbicidal activity, radish seedling assay)
Procedure: Serial concentrations (0 to 4 μM) of thaxtomins in DMSO were added into 20 mL of 1.5% warm agar solution with gentle agitation. DMSO was included as the negative control. The solution was then poured into the plate for solidification at room temperature for 30 min. Radish seeds (Burpee) were surface disinfested, pregerminated and selected when the radicle was […] and just emerged from the seed coat. Six radish seedlings were equally located on the surface of each plate with the root ends all pointed in the same direction. Agar plates were covered, sealed with Parafilm. The seedlings in the agar plates grew at room temperature under fluorescent lighting (12 h per day for 6 days), and total seedling lengths were then recorded. Three plates were set up for each dosage of each compound. Percent inhibition relative to the mean growth response in DMSO treated control plates was then calculated. Dose-response curves were fit to a four-parameter logistic model as described in Streibig, J C, et al., 1993 (which is hereby incorporated by reference herein), and Iso values were estimated from these curves.

Jurkat cells = experiment: MTT assay to characterize cytotoxicity, Jurkat cells; assay type: cell-based, human; details: for cytotoxicity toward Jurkat cell line (in words): PBS as negative control; for IC30 (30% inhibitory concentration) toward Jurkat cells: human T-cell leukemia Jurkat, MTT, 48 to 72 h
Procedure: as §1

cellulose biosynthesis = details: background statement; cited from earlier work

| SMILES | cytotoxicity toward PC-3 cell line (in words) (PC-3 cells) | IC30 (30% inhibitory concentration) toward PC-3 cells (PC-3 cells) [µM] | herbicidal activity / growth inhibition toward radish seedling (in words) (radish seedling) | IC50 (radish seedling) [nM] | cytotoxicity toward Jurkat cell line (in words) (Jurkat cells) | IC30 (30% inhibitory concentration) toward Jurkat cells (Jurkat cells) [µM] | concentration range of inhibition of cellulose biosynthesis (cellulose biosynthesis) | IC50 (radish seedling; Raphanus sativus, 144 h) [nM] |
| --- | --- | --- | --- | --- | --- | --- | --- | --- |
| CN1C(=O)C(O)(Cc2ccccc2O)N(C)C(=O)C1Cc1c[nH]c2cccc([N+](=O)[O-])c12 (centres unmarked) [Compound 2, ortho-thaxtomin A] | weak cytotoxicity | 42.38 ± 13.62 | potent growth inhibition activity | 810 ± 40 | weak cytotoxicity | 56.46 ± 12.04 | – | – |
| CN1C(=O)[C@](O)(Cc2ccccc2)N(C)C(=O)[C@@H]1Cc1c[nH]c2cccc([N+](=O)[O-])c12 [Compound 3, thaxtomin B] | weak cytotoxicity | 37.87 ± 13.46 | – | – | weak cytotoxicity | 50.92 ± 13.17 | – | – |
| CN1C(=O)[C@](O)(Cc2cccc(O)c2)N(C)C(=O)[C@@H]1Cc1c[nH]c2cccc([N+](=O)[O-])c12 [Compound 1, thaxtomin A, reference compound] | weak cytotoxicity | 80.28 ± 10.50 | potent growth inhibition activity | 450 ± 50 | weak cytotoxicity | 70.84 ± 16.68 | in the nM range | – |
| CN1C(=O)[C@](O)(Cc2cccc(O)c2)N(C)C(=O)[C@@H]1Cc1c[nH]c2ccc(F)c([N+](=O)[O-])c12 [Compound 9, 5-F-thaxtomin A] | weak cytotoxicity | 56.76 ± 17.12 | potent herbicidal activity; also recorded: potent growth inhibition activity | – | weak cytotoxicity | 63.26 ± 9.29 | – | 560 ± 30 |
